Reference: ChEMBL document CHEMBL1201862, “PubChem BioAssay data set” (2004)
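Results reflect a 48-hour exposure of cells in 96-well plates to compound at five concentrations. GI50 is the concentration that inhibits growth by half.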 Active and inactive are the calls of the source. Rule as the data show it: active = GI50 up to about 1.1 µM and inactive = higher.

What was measured:
Test in all cases: NCI anticancer screen, dose series, 48 h
OVCAR-5 = system: OVCAR-5
NCI-H23 = system: NCI-H23
HOP-18 = system: HOP-18
SF-539 = system: SF-539
HCT-116 = system: HCT-116
M19-MEL = system: M19-MEL
LOX IMVI = system: LOX IMVI
A498 = system: A498
DLD-1 = system: DLD-1
OVCAR-3 = system: OVCAR-3
HL-60 = system: HL-60
K562 = system: K562
OVCAR-8 = system: OVCAR-8
SK-OV-3 = system: SK-OV-3
SW-620 = system: SW-620
XF498 = system: XF498
HOP-92 = system: HOP-92
SK-MEL-2 = system: SK-MEL-2
U-251 = system: U-251
SF-295 = system: SF-295
OVCAR-4 = system: OVCAR-4
CCRF-CEM = system: CCRF-CEM
RXF 393 = system: RXF 393
UACC-257 = system: UACC-257
Malme-3M = system: Malme-3M
KM12 = system: KM12
CAKI-1 = system: CAKI-1
TK-10 = system: TK-10
UACC-62 = system: UACC-62
ACHN = system: ACHN
SK-MEL-5 = system: SK-MEL-5
SK-MEL-28 = system: SK-MEL-28
786-0 = system: 786-0
HOP-62 = system: HOP-62
NCI-H522 = system: NCI-H522
HCT-15 = system: HCT-15
A549 = system: A549
MOLT-4 = system: MOLT-4
DMS-273 = system: DMS-273
LXFL 529 = system: LXFL 529
HT-29 = system: HT-29
NCI-H460 = system: NCI-H460
SNB-19 = system: SNB-19
RPMI-8226 = system: RPMI-8226
M14 = system: M14
EKVX = system: EKVX
DMS-114 = system: DMS-114
KM-20L2 = system: KM-20L2
SF-268 = system: SF-268
SN12C = system: SN12C
NCI-H226 = system: NCI-H226
UO-31 = system: UO-31
SNB-78 = system: SNB-78
IGROV-1 = system: IGROV-1
COLO 205 = system: COLO 205
SNB-75 = system: SNB-75
HCC 2998 = system: HCC 2998

CCO[C@@H]1C2C=CC(C2)[C@H]1[N+](=O)[O-] (some centres not stated)
GI50 (OVCAR-5): > 100 µM (inactive) | GI50 (NCI-H23): > 100 µM (inactive) | GI50 (HOP-18): > 100 µM (inactive) | GI50 (SF-539): > 100 µM (inactive) | GI50 (HCT-116): > 100 µM (inactive) | GI50 (M19-MEL): > 100 µM (inactive) | GI50 (LOX IMVI): > 100 µM (inactive) | GI50 (A498): > 100 µM (inactive) | GI50 (DLD-1): > 100 µM (inactive) | GI50 (OVCAR-3): > 100 µM (inactive) | GI50 (HL-60): 47.3 µM (inactive) | GI50 (K562): 73.5 µM (inactive) | GI50 (OVCAR-8): > 100 µM (inactive) | GI50 (SK-OV-3): > 100 µM (inactive) | GI50 (SW-620): > 100 µM (inactive) | GI50 (XF498): > 100 µM (inactive) | GI50 (HOP-92): > 100 µM (inactive) | GI50 (SK-MEL-2): > 100 µM (inactive) | GI50 (U-251): > 100 µM (inactive) | GI50 (SF-295): > 100 µM (inactive) | GI50 (OVCAR-4): > 100 µM (inactive) | GI50 (CCRF-CEM): 36.9 µM (inactive) | GI50 (RXF 393): > 100 µM (inactive) | GI50 (UACC-257): > 100 µM (inactive) | GI50 (Malme-3M): > 100 µM (inactive) | GI50 (KM12): > 100 µM (inactive) | GI50 (CAKI-1): > 100 µM (inactive) | GI50 (TK-10): > 100 µM (inactive) | GI50 (UACC-62): > 100 µM (inactive) | GI50 (ACHN): > 100 µM (inactive) | GI50 (SK-MEL-5): > 100 µM (inactive) | GI50 (SK-MEL-28): > 100 µM (inactive) | GI50 (786-0): > 100 µM (inactive) | GI50 (HOP-62): > 100 µM (inactive) | GI50 (NCI-H522): 64 µM (inactive) | GI50 (HCT-15): > 100 µM | GI50 (A549): > 100 µM (inactive) | GI50 (MOLT-4): > 100 µM (inactive) | GI50 (DMS-273): > 100 µM (inactive) | GI50 (LXFL 529): > 100 µM (inactive) | GI50 (HT-29): > 100 µM (inactive) | GI50 (NCI-H460): > 100 µM (inactive) | GI50 (SNB-19): > 100 µM (inactive) | GI50 (RPMI-8226): 72.1 µM (inactive) | GI50 (M14): > 100 µM (inactive) | GI50 (EKVX): > 100 µM (inactive) | GI50 (DMS-114): > 100 µM (inactive) | GI50 (KM-20L2): > 100 µM (inactive) | GI50 (SF-268): > 100 µM (inactive) | GI50 (SN12C): > 100 µM (inactive) | GI50 (NCI-H226): > 100 µM (inactive) | GI50 (UO-31): > 100 µM (inactive) | GI50 (SNB-78): > 100 µM (inactive) | GI50 (IGROV-1): > 100 µM (inactive) | GI50 (COLO 205): > 100 µM (inactive) | GI50 (SNB-75): 64.9 µM (inactive) | GI50 (HCC 2998): > 100 µM (inactive)
